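1) Cells in 96-well plates. 2) Compound, 48 h, 5 concentrations. 3) Linear interpolation between surrounding doses. 4) Unreached endpoint = highest concentration. GI50 marks 50% less growth. Definition used: TGI = concentration required for complete inhibition of growth.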
Tests used:
Test in all cases: DTP human tumour cell line panel, 48 h
HT29 colon = tested on: HT29 colon
M14 melanoma = tested on: M14 melanoma
K-562 leukemia = tested on: K-562 leukemia
BT-549 breast = tested on: BT-549 breast
SK-OV-3 ovarian = tested on: SK-OV-3 ovarian
NCI-H460 lung = tested on: NCI-H460 lung
786-0 renal = tested on: 786-0 renal
CAKI-1 renal = tested on: CAKI-1 renal
SN12C renal = tested on: SN12C renal
HL-60(TB) leukemia = tested on: HL-60(TB) leukemia

Cc1cc(=O)[nH]o1
TGI (HT29 colon): > 100 µM | TGI (M14 melanoma): > 100 µM | TGI (K-562 leukemia): > 100 µM | TGI (BT-549 breast): > 100 µM | TGI (SK-OV-3 ovarian): > 100 µM | TGI (NCI-H460 lung): > 100 µM | TGI (786-0 renal): > 100 µM | TGI (CAKI-1 renal): > 100 µM

CCCCCCCCOC(CO)CO
TGI (HT29 colon): > 100 µM | TGI (M14 melanoma): > 100 µM | TGI (K-562 leukemia): > 100 µM | TGI (SN12C renal): > 100 µM | TGI (SK-OV-3 ovarian): > 100 µM | TGI (NCI-H460 lung): > 100 µM | TGI (HL-60(TB) leukemia): > 100 µM | TGI (786-0 renal): > 100 µM | TGI (CAKI-1 renal): > 100 µM

C[C@]12CCc3nonc3C1CC[C@@H]1C2CC[C@]2(C)NC(=O)CCC12 (some centres not stated)
TGI (HT29 colon): > 100 µM | TGI (M14 melanoma): > 100 µM | TGI (K-562 leukemia): > 100 µM | TGI (SN12C renal): > 100 µM | TGI (SK-OV-3 ovarian): > 100 µM | TGI (NCI-H460 lung): > 100 µM | TGI (HL-60(TB) leukemia): > 100 µM | TGI (786-0 renal): > 100 µM | TGI (CAKI-1 renal): > 100 µM

Cc1ccc(Nc2n[nH]c(=S)s2)cc1
TGI (HT29 colon): > 100 µM | TGI (M14 melanoma): > 100 µM | TGI (K-562 leukemia): > 100 µM | TGI (SN12C renal): > 100 µM | TGI (SK-OV-3 ovarian): > 100 µM | TGI (NCI-H460 lung): > 100 µM | TGI (HL-60(TB) leukemia): > 100 µM | TGI (786-0 renal): > 100 µM | TGI (CAKI-1 renal): > 100 µM

O=C(c1cc2ccccc2o1)N(Cc1ccccc1)c1ccccc1
TGI (HT29 colon): 66 µM | TGI (M14 melanoma): 38.9 µM | TGI (K-562 leukemia): 40 µM | TGI (SN12C renal): 34.7 µM | TGI (SK-OV-3 ovarian): 91.2 µM | TGI (NCI-H460 lung): 78.6 µM | TGI (HL-60(TB) leukemia): 40.6 µM | TGI (786-0 renal): 46.7 µM | TGI (CAKI-1 renal): 55.5 µM

O=c1cccccc1NCCCCCCNc1cccccc1=O
TGI (HT29 colon): > 100 µM | TGI (M14 melanoma): > 100 µM | TGI (K-562 leukemia): > 100 µM | TGI (SN12C renal): > 100 µM | TGI (SK-OV-3 ovarian): > 100 µM | TGI (NCI-H460 lung): > 100 µM | TGI (HL-60(TB) leukemia): > 100 µM | TGI (786-0 renal): > 100 µM | TGI (CAKI-1 renal): > 100 µM

CC/C(=C(/CC)c1ccc([O-])cc1)c1ccc([O-])cc1.CC/C(=C(\CC)c1ccc([O-])cc1)c1ccc([O-])cc1.O=C([CH-]C(=O)c1ccccc1)c1ccccc1.O=C([CH-]C(=O)c1ccccc1)c1ccccc1.O=C([CH-]C(=O)c1ccccc1)c1ccccc1.O=C([CH-]C(=O)c1ccccc1)c1ccccc1.[Ti+4].[Ti+4]
GI50 (HT29 colon): 29.8 µM | TGI (HT29 colon): > 100 µM | GI50 (M14 melanoma): 20.7 µM | TGI (M14 melanoma): 78.8 µM | GI50 (K-562 leukemia): 23.9 µM | TGI (K-562 leukemia): > 100 µM | GI50 (SN12C renal): 47.1 µM | TGI (SN12C renal): > 100 µM | GI50 (SK-OV-3 ovarian): 30.8 µM | TGI (SK-OV-3 ovarian): 74.4 µM | GI50 (NCI-H460 lung): 25.2 µM | TGI (NCI-H460 lung): > 100 µM | GI50 (HL-60(TB) leukemia): > 100 µM | TGI (HL-60(TB) leukemia): > 100 µM | GI50 (786-0 renal): 16.9 µM | TGI (786-0 renal): 32.4 µM | GI50 (CAKI-1 renal): 23.5 µM | TGI (CAKI-1 renal): 58.5 µM

CC(=O)c1c(C)n(C)c2c1nnc1ccccc12
TGI (HT29 colon): > 100 µM | TGI (M14 melanoma): > 100 µM | TGI (BT-549 breast): > 100 µM | TGI (SN12C renal): > 100 µM | TGI (SK-OV-3 ovarian): > 100 µM | TGI (NCI-H460 lung): > 100 µM | TGI (786-0 renal): > 100 µM | TGI (CAKI-1 renal): > 100 µM

CC(C)(C#N)c1cc(F)cc(C(=O)Nc2cc(Nc3ncccc3-c3ncnc4nc[nH]c34)ccc2F)c1
GI50 (HT29 colon): 0.151 µM | TGI (HT29 colon): > 10 µM | GI50 (M14 melanoma): 0.0682 µM | TGI (M14 melanoma): 1.02 µM | GI50 (K-562 leukemia): 0.606 µM | TGI (K-562 leukemia): > 10 µM | GI50 (BT-549 breast): 3.63 µM | TGI (BT-549 breast): > 10 µM | GI50 (SN12C renal): 3.11 µM | TGI (SN12C renal): > 10 µM | GI50 (SK-OV-3 ovarian): > 10 µM | TGI (SK-OV-3 ovarian): > 10 µM | GI50 (NCI-H460 lung): 2.51 µM | TGI (NCI-H460 lung): > 10 µM | GI50 (HL-60(TB) leukemia): 0.123 µM | TGI (HL-60(TB) leukemia): > 10 µM | GI50 (786-0 renal): > 10 µM | TGI (786-0 renal): > 10 µM
